Results: patent US12281122B1, “PI3K inhibitors” (Cogent Biosciences, Inc., priority 2023, dated 2025)

Experiments:
[1] = tested on: T47D (PI3Kα-H1047R) cell line; test: HTRF phospho-AKT(S473) cell assay in T47D cells; assay type: cell-based, human
Outline: (§1)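 Cells plated overnight (T47D in RPMI/10% FBS/0.2 units/mL insulin; SKBR3 in McCoy's 5A/10% FBS), then given 12-point 1:3 compound series (top 5 μM T47D, 10 μM SKBR3; ≤0.5% DMSO) for 2 h at 37° C. SKBR3 stimulated with 70 ng/ml PDGF-BB for final 15 min. Lysate pAKT(S473) by HTRF; IC50 calculated.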

[2] = tested on: SKBR3 (PI3Kα-Wild Type) cell line; test: HTRF phospho-AKT(S473) cell assay in SKBR3 cells; assay type: cell-based, human
Outline: as §1

[3] = Homo sapiens; HTRF phospho-AKT(S473), T47D (PI3Kα-H1047R) cells, 2 hours compound incubation
[4] = Homo sapiens, SK-BR-3; HTRF phospho-AKT(S473), SKBR3 (PI3Kα-Wild Type) cells, 2 hours compound incubation, PDGF-BB stimulated
[5] = Homo sapiens; T47D (PI3Kα-H1047R) cells, HTRF phospho-AKT(S473), 2 hours compound incubation
[6] = Homo sapiens, SK-BR-3; SKBR3 (PI3Kα-Wild Type) cells, HTRF phospho-AKT(S473), 2 hours compound incubation, PDGF-BB stimulated

IC50 [1, 3] [nM] | IC50 [2, 4] [nM] | IC50 [1, 5] [nM] | IC50 [2, 6] [nM] | SMILES
250 to 500 | ≥ 5000 |  |  | Cc1cc([C@@H](C)Nc2ccc(Cl)nc2C(=O)NS(C)(=O)=O)c2nc(N3C[C@H]4C[C@@H]3CN4c3ncc(C#N)cc3F)n(C)c(=O)c2c1 [Compound 767, 6-chloro-3-(((R)-1-(2-((1R,4R)-5-(5-cyano-3-fluoropyridin-2-yl)-2,5-diazabicyclo [2.2.1]heptan-2-yl)-3,6-dimethyl-4-oxo-3,4-dihydroquinazolin-8-yl)ethyl)amino)-N-(methylsulfonyl) picolinamide]
 |  | < 250 | 1000 to 5000 | Cc1cc([C@@H](C)Nc2ccc(Cl)nc2C(=O)NS(C)(=O)=O)c2nc(N3Cc4cn(-c5ccnn5C)nc4C3)n(C)c(=O)c2c1 [Compound 277, (R)-6-chloro-3-((1-(3,6-dimethyl-2-(2-(1-methyl-1H-pyrazol-5-yl)-2,6-dihydropyrrolo[3,4-c]pyrazol-5(4H)-yl)-4-oxo-3,4-dihydroquinazolin-8-yl)ethyl)amino)-N-(methylsulfonyl) picolinamide]
 |  | < 250 | ≥ 5000 | Cc1cc([C@@H](C)Nc2ccc(Cl)nc2C(=O)NS(C)(=O)=O)c2nc(N3CCC(C)(c4ccn(C)n4)CC3)n(C)c(=O)c2c1 [Compound 301, (R)-6-chloro-3-((1-(3,6-dimethyl-2-(4-methyl-4-(1-methyl-1H-pyrazol-3-yl)piperidin-1-yl)-4-oxo-3,4-dihydroquinazolin-8-yl)ethyl)amino)-N-(methylsulfonyl) picolinamide]
500 to 1000 | ≥ 5000 |  |  | [2H]C([2H])([2H])n1ncc(F)c1C1CCN(c2nc3c([C@@H](C)Nc4ccc(Cl)nc4C(=O)NS(C)(=O)=O)cc(C)cc3c(=O)n2C)CC1 [Compound 457, (R)-6-chloro-3-((1-(2-(4-(4-fluoro-1-(methyl-d3)-1H-pyrazol-5-yl)piperidin-1-yl)-3,6-dimethyl-4-oxo-3,4-dihydroquinazolin-8-yl)ethyl)amino)-N-(methylsulfonyl) picolinamide]
 |  | 250 to 500 | 1000 to 5000 | Cc1cc([C@@H](C)Nc2ccc(Cl)nc2C(=O)NS(C)(=O)=O)c2nc(N(C)CC3(C(F)(F)F)CC3)n(C)c(=O)c2c1 [Compound 163, (R)-6-chloro-3-((1-(3,6-dimethyl-2-(methyl((1-(trifluoromethyl)cyclopropyl)methyl)amino)-4-oxo-3,4-dihydroquinazolin-8-yl)ethyl)amino)-N-(methylsulfonyl) picolinamide]
 |  | < 250 | 1000 to 5000 | Cc1cc([C@@H](C)Nc2ccc(Cl)nc2C(=O)NS(C)(=O)=O)c2nc(N3CCN(c4cnc(C)nc4)CC3)n(C)c(=O)c2c1 [Compound 257, (R)-6-chloro-3-((1-(3,6-dimethyl-2-(4-(2-methylpyrimidin-5-yl)piperazin-1-yl)-4-oxo-3,4-dihydroquinazolin-8-yl)ethyl)amino)-N-(methylsulfonyl) picolinamide]
 |  | 250 to 500 | 1000 to 5000 | Cc1cc([C@@H](C)Nc2ccc(Cl)nc2C(=O)NS(C)(=O)=O)c2nc(N3C[C@@H]4[C@H](C3)[C@H]4c3ccn(C)n3)n(C3CC3)c(=O)c2c1 [Compound 419, 6-chloro-3-(((R)-1-(3-cyclopropyl-6-methyl-2-((1R,5S,6R)-6-(1-methyl-1H-pyrazol-3-yl)-3-azabicyclo[3.1.0]hexan-3-yl)-4-oxo-3,4-dihydroquinazolin-8-yl)ethyl)amino)-N-(methylsulfonyl) picolinamide]
< 250 | 1000 to 5000 |  |  | Cc1cc([C@@H](C)Nc2ccc(Cl)nc2C(=O)NS(C)(=O)=O)c2nc(N3C[C@@H]4[C@H](C3)[C@H]4c3cc4cccnn4n3)n(C)c(=O)c2c1 [Compound 620, 6-chloro-3-(((R)-1-(3,6-dimethyl-4-oxo-2-((1R,5S,6R)-6-(pyrazolo[1,5-b]pyridazin-2-yl)-3-azabicyclo[3.1.0]hexan-3-yl)-3,4-dihydroquinazolin-8-yl)ethyl)amino)-N-(methylsulfonyl) picolinamide]
250 to 500 | ≥ 5000 |  |  | Cc1cc([C@@H](C)Nc2ccc(Cl)nc2C(=O)NS(C)(=O)=O)c2nc(N3C[C@@H]4C(c5ncc(Cl)cn5)[C@@H]4C3)n(C)c(=O)c2c1 (stereo partly drawn) [Compound 535, 6-chloro-3-(((1R)-1-(2-((1R,5S)-6-(5-chloropyrimidin-2-yl)-3-azabicyclo[3.1.0]hexan-3-yl)-3,6-dimethyl-4-oxo-3,4-dihydroquinazolin-8-yl)ethyl)amino)-N-(methylsulfonyl) picolinamide]
< 250 | 1000 to 5000 |  |  | Cc1cc([C@@H](C)Nc2ccc(Cl)nc2C(=O)NS(C)(=O)=O)c2nc(N3C[C@@H]4[C@H](C3)[C@H]4c3nnc(C)o3)n(C)c(=O)c2c1 [Compound 654, 6-chloro-3-(((R)-1-(3,6-dimethyl-2-((1R,5S,6R)-6-(5-methyl-1,3,4-oxadiazol-2-yl)-3-azabicyclo[3.1.0]hexan-3-yl)-4-oxo-3,4-dihydroquinazolin-8-yl)ethyl)amino)-N-(methylsulfonyl) picolinamide]
250 to 500 | ≥ 5000 |  |  | Cc1cc([C@@H](C)Nc2ccc(Cl)nc2C(=O)NS(C)(=O)=O)c2nc(N3CCC(c4ncnn4C(C)C)CC3)n(C)c(=O)c2c1 [Compound 719, (R)-6-chloro-3-((1-(2-(4-(1-isopropyl-1H-1,2,4-triazol-5-yl)piperidin-1-yl)-3,6-dimethyl-4-oxo-3,4-dihydroquinazolin-8-yl)ethyl)amino)-N-(methylsulfonyl) picolinamide]
 |  | < 250 | 1000 to 5000 | Cc1cc([C@@H](C)Nc2ccc(Cl)nc2C(=O)NS(C)(=O)=O)c2nc(N3CCN(c4cnn(CC(F)(F)F)c4)CC3)n(C)c(=O)c2c1 [Compound 193, (R)-6-chloro-3-((1-(3,6-dimethyl-4-oxo-2-(4-(1-(2,2,2-trifluoroethyl)-1H-pyrazol-4-yl)piperazin-1-yl)-3,4-dihydroquinazolin-8-yl)ethyl)amino)-N-(methylsulfonyl) picolinamide]
500 to 1000 | ≥ 5000 |  |  | Cc1cc([C@@H](C)Nc2ccc(Cl)nc2C(=O)NS(C)(=O)=O)c2nc(C3CCCN(c4ncc(F)cn4)C3)n(C)c(=O)c2c1 (mixture of isomers) [Compound 748, 6-chloro-3-(((1R)-1-(2-(1-(5-fluoropyrimidin-2-yl)piperidin-3-yl)-3,6-dimethyl-4-oxo-3,4-dihydroquinazolin-8-yl)ethyl)amino)-N-(methylsulfonyl) picolinamide]
 |  | 250 to 500 | ≥ 5000 | Cc1cc([C@@H](C)Nc2ccc(Cl)nc2C(=O)NS(C)(=O)=O)c2nc(N3C[C@H]4C[C@@H](c5cc[nH]n5)[C@@H]3C4)n(C)c(=O)c2c1 (single isomer, unassigned) [Compound 346, 3-(((R)-1-(2-((1S,4S,6R*)-6-(1H-pyrazol-3-yl)-2-azabicyclo[2.2.1]heptan-2-yl)-3,6-dimethyl-4-oxo-3,4-dihydroquinazolin-8-yl)ethyl)amino)-6-chloro-N-(methylsulfonyl) picolinamide]
250 to 500 | ≥ 5000 |  |  | Cc1cc([C@@H](C)Nc2ccc(Cl)nc2C(=O)NS(C)(=O)=O)c2nc(-c3ccccc3)n(C)c(=O)c2c1 [Compound 813, (R)-6-chloro-3-((1-(3,6-dimethyl-4-oxo-2-phenyl-3,4-dihydroquinazolin-8-yl)ethyl)amino)-N-(methylsulfonyl) picolinamide]
< 250 | ≥ 5000 |  |  | Cc1cc([C@@H](C)Nc2ccc(Cl)nc2C(=O)NS(C)(=O)=O)c2nc(N3CCC(c4ncc(C)nc4C)CC3)n(C)c(=O)c2c1 [Compound 525, (R)-6-chloro-3-((1-(2-(4-(3,5-dimethylpyrazin-2-yl)piperidin-1-yl)-3,6-dimethyl-4-oxo-3,4-dihydroquinazolin-8-yl)ethyl)amino)-N-(methylsulfonyl) picolinamide]
250 to 500 | ≥ 5000 |  |  | Cc1cc([C@@H](C)Nc2ccc(Cl)nc2C(=O)NS(C)(=O)=O)c2nc(N3CCC[C@H](c4c[nH]nc4C)C3)n(C)c(=O)c2c1 (relative stereo) [Compound 703, 6-chloro-3-(((R)-1-(3,6-dimethyl-2-((R*)-3-(3-methyl-1H-pyrazol-4-yl)piperidin-1-yl)-4-oxo-3,4-dihydroquinazolin-8-yl)ethyl)amino)-N-(methylsulfonyl) picolinamide]
< 250 | 1000 to 5000 |  |  | CCn1c(N2CCC(n3cc(C)cn3)CC2)nc2c([C@@H](C)Nc3ccc(Cl)nc3C(=O)NS(C)(=O)=O)cc(C)cc2c1=O [Compound 526, (R)-6-chloro-3-((1-(3-ethyl-6-methyl-2-(4-(4-methyl-1H-pyrazol-1-yl)piperidin-1-yl)-4-oxo-3,4-dihydroquinazolin-8-yl)ethyl)amino)-N-(methylsulfonyl) picolinamide]
 |  | < 250 | 1000 to 5000 | Cc1cc([C@@H](C)Nc2ccc(Cl)nc2C(=O)NS(C)(=O)=O)c2nc(N3CCC(c4cnc(C)c(F)c4)CC3)n(C)c(=O)c2c1 [Compound 422, (R)-6-chloro-3-((1-(2-(4-(5-fluoro-6-methylpyridin-3-yl)piperidin-1-yl)-3,6-dimethyl-4-oxo-3,4-dihydroquinazolin-8-yl)ethyl)amino)-N-(methylsulfonyl) picolinamide]
< 250 | 1000 to 5000 |  |  | Cc1cc([C@@H](C)Nc2ccc(Cl)nc2C(=O)NS(C)(=O)=O)c2nc(-c3ccc4nn(C(F)F)cc4c3)n(C)c(=O)c2c1 [Compound 836, (R)-6-chloro-3-((1-(2-(2-(difluoromethyl)-2H-indazol-5-yl)-3,6-dimethyl-4-oxo-3,4-dihydroquinazolin-8-yl)ethyl)amino)-N-(methylsulfonyl) picolinamide]
